Assays:
Assay in all cases: relative viability (nuclei count vs DMSO), 5 days (fraction); higher = more cells survive
[1] = compound: COc1cc2c(Oc3ccc4[nH]c(C)cc4c3F)ncnc2cc1OCCCN1CCCC1 [Cediranib]
Outline: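 For viability, nuclei in each treated well were divided by nuclei in vehicle wells and the median across plates was taken. Lung cancer cell lines in 1536-well plates were pinned with five library-drug doses (not always all listed) spaced by √10, cultured 5 days without medium change, and imaged at 4× after Hoechst staining, with plates passing only at control CV below 25% and at least one doubling.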

[2] = compound: O=C(C[C@H]1NCCC[C@@H]1O)Cn1cnc2cc(Br)c(Cl)cc2c1=O (racemic) [Halofuginone] + NC(=O)Nc1cc(-c2cccc(F)c2)sc1C(=O)N[C@H]1CCCNC1 [AZD7762] (partner 0.2 µM)
Outline: (§1)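 For relative viability, nuclei counts in treated wells were divided by those in vehicle wells. Lung cancer cell lines had been pin-tool dosed in 1536-well plates the day after seeding and cultured for 5 days, then fixed and stained in one step (final 0.05% Triton X-100, 1% formaldehyde, 1 ug/ml Hoechst) and imaged at 4×. Doses were one drug alone or a fixed anchor-drug dose plus five library-drug doses (not always all listed) in √10 steps, and values are duplicate-plate medians.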

[3] = compound: Nc1ncn([C@H]2C[C@H](O)[C@@H](CO)O2)c(=O)n1 [Decitabine] + C[C@]1(O)C[C@@H](c2nc(-c3ccc4ccc(-c5ccccc5)nc4c3)c3c(N)nccn32)C1 [Linsitinib] (partner 1 µM)
Outline: as §1

[4] = compound: Nc1ncn([C@H]2C[C@H](O)[C@@H](CO)O2)c(=O)n1 [Decitabine] + CS(=O)(=O)N1CCN(Cc2cc3nc(-c4cccc5[nH]ncc45)nc(N4CCOCC4)c3s2)CC1 [Pictilisib] (partner 1 µM)
Outline: as §1

| Cell Line | relative viability ([1]; 0.04 µM) | relative viability ([1]; 0.1265 µM) | relative viability ([1]; 0.4 µM) | relative viability ([1]; 1.265 µM) | relative viability ([1]; 4 µM) | relative viability ([2]; first compound 0.001 µM) | relative viability ([2]; first compound 0.003162 µM) | relative viability ([2]; first compound 0.01 µM) | relative viability ([2]; first compound 0.03162 µM) | relative viability ([2]; first compound 0.1 µM) | relative viability ([3]; first compound 0.04 µM) | relative viability ([3]; first compound 0.1265 µM) | relative viability ([3]; first compound 0.4 µM) | relative viability ([3]; first compound 1.265 µM) | relative viability ([3]; first compound 4 µM) | relative viability ([4]; first compound 0.04 µM) | relative viability ([4]; first compound 0.1265 µM) | relative viability ([4]; first compound 0.4 µM) | relative viability ([4]; first compound 1.265 µM) | relative viability ([4]; first compound 4 µM) |
| --- | --- | --- | --- | --- | --- | --- | --- | --- | --- | --- | --- | --- | --- | --- | --- | --- | --- | --- | --- | --- |
| LC-2-ad | 1.04 | 0.871 | 0.953 | 0.955 | 0.785 | 0.841 | 0.878 | 0.831 | 0.885 | 0.576 | 0.732 | 0.746 | 0.51 | 0.497 | 0.378 | 0.359 | 0.37 | 0.495 | 0.3 | 0.275 |
| HARA | 0.908 | 1.01 | 0.878 | 1.05 | 1.01 | 0.279 | 0.506 | 0.391 | 0.305 | 0.304 | 0.896 | 0.776 | 0.69 | 0.382 | 0.312 | 0.367 | 0.564 | 0.285 | 0.236 | 0.15 |
| NCI-H650 | 0.892 | 0.787 | 0.961 | 0.87 | 0.996 | 1.06 | 0.848 | 1.21 | 1 | 0.594 | 0.722 | 0.538 | 0.298 | 0.258 | 0.32 | 0.81 | 0.779 | 0.574 | 0.443 | 0.33 |
| NCI-H1975 | 0.974 | 0.983 | 0.914 | 0.956 | 0.939 | 0.737 | 0.792 | 0.666 | 0.644 | 0.402 | 0.706 | 0.525 | 0.346 | 0.326 | 0.369 | 0.293 | 0.254 | 0.226 | 0.238 | 0.218 |
| NCI-H2085 | 1 | 1.08 | 0.946 | 0.99 | 0.97 | 0.996 | 1.02 | 0.947 | 0.992 | 0.932 | 0.744 | 0.615 | 0.508 | 0.392 | 0.372 | 0.454 | 0.462 | 0.408 | 0.403 | 0.404 |
| NCI-H3122 | 1.09 | 0.765 | 0.977 | 1 | 1.01 | 0.937 | 1.09 | 0.985 | 0.94 | 0.922 | 1.01 | 1.01 | 0.941 | 0.788 | 0.711 | 0.64 | 0.564 | 0.399 | 0.571 | 0.517 |
| NCI-H1651 | 0.977 | 0.963 | 0.96 | 0.951 | 0.999 | 0.485 | 0.487 | 0.476 | 0.457 | 0.466 | 0.865 | 0.888 | 0.888 | 0.839 | 0.733 | 0.481 | 0.598 | 0.624 | 0.503 | 0.434 |
| NCI-H441 | 1.04 | 0.985 | 0.884 | 1.03 | 1.09 | 1.13 | 1.35 | 1.18 | 1.3 | 0.599 | 0.282 | 0.407 | 0.272 | 0.19 | 0.165 | 0.28 | 0.306 | 0.286 | 0.205 | 0.179 |
